Where two headings read alike, the source gives them in different places.
Legend:
[1] = molecular target: T1, catalytic domain of human Bub1 (amino acids 704-1085) (Homo sapiens, UniProt O43683); experiment: Bub1 kinase assay (TR-FRET); format: biochemical
T1 construct: catalytic domain of human Bub1 (amino acids 704-1085); His6 (N); made in house; host or cells: Hi5 insect cells
Description: To this end, 100-fold concentrated compound solutions (in DMSO) were previously prepared by serial dilution (1:3.4) of 2 mM stocks in a clear low volume 384-well source microtiter plate (Greiner Bio-One, Frickenhausen, Germany), from which 50 nl of compounds were transferred into a black low volume test microtiter plate from the same supplier. […] The resulting mixture (5 μL final volume) was incubated at 22° C. during 60 min., and the reaction was stopped by the addition of 5 μL of an aqueous EDTA-solution (50 mM EDTA, in 100 mM HEPES pH 7.5 and 0.2% (w/v) bovine serum albumin) which also contained the TR-FRET detection reagents (0.2 μM streptavidin-XL665 [Cisbio Bioassays, Codolet, France] and 1 nM anti-phosho-Serine antibody [Merck Millipore, cat. #35-001] and 0.4 nM LANCE EU-W1024 labeled anti-mouse IgG antibody [Perkin-Elmer, product no. AD0077, alternatively a Terbium-cryptate-labeled anti-mouse IgG antibody from Cisbio Bioassays can be used]). The stopped reaction mixture was further incubated 1 h at 22° C. in order to allow the formation of complexes between peptides and detection reagents. Subsequently, the amount of product was evaluated by measurement of the resonance energy transfer from the Eu-chelate-antibody complex recognizing the Phosphoserine residue to the streptavidin-XL665 bound to the biotin moiety of the peptide. […] IC50 values were calculated by fitting the normalized inhibition data to a 4-parameter logistic equation (Minimum, Maximum, IC50, Hill; Y=Max+(Min−Max)/(1+(X/IC50)Hill)).

[2] = test system: HeLa cell line; experiment: Proliferation assay (HeLa cell line), crystal violet staining; format: cell-based; details: Homo sapiens, 96 h, read-out: Biological Assay 2: Proliferation assay (HeLa cell line) median IC50
Description: Cultivated tumor cells (cells were ordered from ATCC, except HeLa-MaTu and HeLa-MaTu-ADR, which were ordered from EPO-GmbH, Berlin) were plated at a density of 1000 to 5000 cells/well, depending on the growth rate of the respective cell line, in a 96-well multititer plate in 200 μL of their respective growth medium supplemented 10% fetal calf serum. After 24 hours, the cells of one plate (zero-point plate) were stained with crystal violet (see below), while the medium of the other plates was replaced by fresh culture medium (200 μL), to which the test substances were added in various concentrations (0 μM, as well as in the range of 0.001-10 μM; the final concentration of the solvent dimethyl sulfoxide was 0.5%). The cells were incubated for 4 days in the presence of test substances. Cell proliferation was determined by staining the cells with crystal violet: the cells were fixed by adding 20 μl/measuring point of an 11% glutaric aldehyde solution for 15 minutes at room temperature. After three washing cycles of the fixed cells with water, the plates were dried at room temperature. The cells were stained by adding 100 μl/measuring point of a 0.1% crystal violet solution (pH 3.0). After three washing cycles of the stained cells with water, the plates were dried at room temperature. The dye was dissolved by adding 100 μl/measuring point of a 10% acetic acid solution. Absorption was determined by photometry at a wavelength of 595 nm. The change of cell number, in percent, was calculated by normalization of the measured values to the absorption values of the zero-point plate (=0%) and the absorption of the untreated (0 μm) cells (=100%). The IC50 values were determined by means of a 4 parameter fit using the company's own software.

[3] = TR-FRET, recombinant catalytic domain of human Bub1, ATP 10 μM, peptide substrate 1 μM, median value, read-out: Biological Assay 1: Bub1 kinase assay median IC50
[4] = HeLa cells, incubated for 4 days with test substance, crystal violet staining, median value

T1 sequence (O43683 704-1085): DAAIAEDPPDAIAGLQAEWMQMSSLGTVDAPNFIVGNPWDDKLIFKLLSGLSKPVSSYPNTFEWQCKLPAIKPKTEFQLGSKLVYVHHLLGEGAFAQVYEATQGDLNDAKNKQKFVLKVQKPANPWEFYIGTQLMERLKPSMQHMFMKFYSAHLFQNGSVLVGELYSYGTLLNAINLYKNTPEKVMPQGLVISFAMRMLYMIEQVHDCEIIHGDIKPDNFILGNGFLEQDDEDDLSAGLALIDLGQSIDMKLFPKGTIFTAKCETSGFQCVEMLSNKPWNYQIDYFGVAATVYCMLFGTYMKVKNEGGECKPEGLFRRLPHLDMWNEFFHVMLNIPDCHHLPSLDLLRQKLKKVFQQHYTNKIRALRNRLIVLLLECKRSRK

SMILES	IC50 [1]	IC50 [1, 3]	IC50 [2, 4]	IC50 ([2]; HeLa)
CCOc1cc(F)c(Cn2nc(-c3cc(Nc4ccncn4)ccn3)c3cnccc32)c(F)c1 [Example 2-5-4, N-{2-[1-(4-ethoxy-2,6-difluorobenzyl)-1H-pyrazolo[4,3-c]pyridin-3-yl]pyridin-4-yl}pyrimidin-4-amine]	0.22 µM			
Cn1cc(Nc2ccnc(-c3nn(Cc4ccccc4F)c4ccccc34)c2)cn1 [Example 2-6-4, 2-[1-(2-fluorobenzyl)-1H-indazol-3-yl]-N-(1-methyl-1H-pyrazol-4-yl)pyridin-4-amine]	17 µM			
COc1ccc(Cn2nc(-c3ncc(OC)c(Nc4ccc(F)cc4)n3)c3ccccc32)cc1 [Example 2-1-6, N-(4-fluorophenyl)-5-methoxy-2-[1-(4-methoxybenzyl)-1H-indazol-3-yl]pyrimidin-4-amine]		8.8 µM		
CCCc1ccc(Cn2nc(-c3cc(Nc4ccncn4)ccn3)c3ccccc32)cc1 [Example 2-6-3, N-{2-[1-(4-propylbenzyl)-1H-indazol-3-yl]pyridin-4-yl}pyrimidin-4-amine]	0.028 µM		6.9 µM	
COc1ccc(Cn2nc(-c3nccc(Nc4nnc(N)[nH]4)n3)c3ccccc32)cc1 [Example 2-5-5, N-{2-[1-(4-methoxybenzyl)-1H-indazol-3-yl]pyrimidin-4-yl}-4H-1,2,4-triazole-3,5-diamine]		2.8 µM		
COc1ccc(Cn2nc(-c3ncc(OC)c(Nc4cccnc4)n3)c3ccccc32)cc1 [Example 2-1-3, 5-methoxy-2-[1-(4-methoxybenzyl)-1H-indazol-3-yl]-N-(pyridin-3-yl)pyrimidin-4-amine]		2.6 µM		3.6 µM
CCOc1cc(F)c(Cn2nc(-c3ncc(OC)c(Nc4ccccc4C(N)=O)n3)c3ccccc32)c(F)c1 [Example 2-12-1, 2-({2-[1-(4-ethoxy-2,6-difluorobenzyl)-1H-indazol-3-yl]-5-methoxypyrimidin-4-yl}amino)benzamide]		0.92 µM		> 10 µM
CCOc1cc(F)c(Cn2nc(-c3cc(Nc4cnsc4)ccn3)c3ccccc32)c(F)c1 [Example 2-5-3, 2-[1-(4-ethoxy-2,6-difluorobenzyl)-1H-indazol-3-yl]-N-(1,2-thiazol-4-yl)pyridin-4-amine]		0.72 µM		> 10 µM
CCOc1cc(F)c(Cn2nc(-c3ncc(OC)c(Nc4cncc(C(=O)NC)n4)n3)c3ccccc32)c(F)c1 [Example 2-2-6, 6-({2-[1-(4-ethoxy-2,6-difluorobenzyl)-1H-indazol-3-yl]-5-methoxypyrimidin-4-yl}amino)-N-methylpyrazine-2-carboxamide]		0.66 µM		> 10 µM
CCOc1cc(F)c(Cn2nc(-c3ncc(OC)c(Nc4cn[nH]c4)n3)c3ccccc32)c(F)c1 [Example 2-10-2, 2-[1-(4-ethoxy-2,6-difluorobenzyl)-1H-indazol-3-yl]-5-methoxy-N-(1H-pyrazol-4-yl)pyrimidin-4-amine]		0.0047 µM		> 10 µM
CCCc1ccc(Cn2nc(-c3ncc(OC)c(Nc4ccncn4)n3)c3ccccc32)cc1 [Example 2-3-1, 5-methoxy-2-[1-(4-propylbenzyl)-1H-indazol-3-yl]-N-(pyrimidin-4-yl)pyrimidin-4-amine]		0.044 µM		> 10 µM
CCOc1cc(F)c(Cn2nc(-c3ncc(OC)c(Nc4ccccc4C(=O)O)n3)c3ccccc32)c(F)c1 [Example 2-2-4, 2-({2-[1-(4-ethoxy-2,6-difluorobenzyl)-1H-indazol-3-yl]-5-methoxypyrimidin-4-yl}amino)benzoic acid]	0.29 µM			
CCOc1cc(F)c(Cn2nc(-c3ncc(OC)c(Nc4ccccc4C(=O)NC)n3)c3ccccc32)c(F)c1 [Example 2-12-2, 2-({2-[1-(4-ethoxy-2,6-difluorobenzyl)-1H-indazol-3-yl]-5-methoxypyrimidin-4-yl}amino)-N-methylbenzamide]		1.1 µM		1.1 µM
CCOc1cc(F)c(Cn2nc(-c3ncc(OC)c(Nc4ccc(F)cc4C(=O)NC)n3)c3ccccc32)c(F)c1 [Example 2-12-3, 2-({2-[1-(4-ethoxy-2,6-difluorobenzyl)-1H-indazol-3-yl]-5-methoxypyrimidin-4-yl}amino)-5-fluoro-N-methylbenzamide]		6.8 µM		1.2 µM
CCOc1cc(F)c(Cn2nc(-c3cc(Nc4ncnn4CC)ccn3)c3ccccc32)c(F)c1 [Example 2-8-1, 2-[1-(4-ethoxy-2,6-difluorobenzyl)-1H-indazol-3-yl]-N-(1-ethyl-1H-1,2,4-triazol-5-yl)pyridin-4-amine]		0.12 µM		
COc1ccc(Cn2nc(-c3ncc(OC)c(Nc4ccccc4)n3)c3ccccc32)cc1 [Example 2-1-5, 5-methoxy-2-[1-(4-methoxybenzyl)-1H-indazol-3-yl]-N-phenylpyrimidin-4-amine]		3.7 µM		
CCOc1cc(F)c(Cn2nc(-c3cc(Nc4ccncn4)ccn3)c3ccccc32)c(F)c1 [Example 2-5-1, N-{2-[1-(4-ethoxy-2,6-difluorobenzyl)-1H-indazol-3-yl]pyridin-4-yl}pyrimidin-4-amine]		0.014 µM		> 10 µM
COc1ccc(Cn2nc(-c3ncc(OC)c(Nc4cn[nH]c4)n3)c3ccccc32)cc1 [Example 2-10-1, 5-methoxy-2-[1-(4-methoxybenzyl)-1H-indazol-3-yl]-N-(1H-pyrazol-4-yl)pyrimidin-4-amine]	0.02 µM			3.4 µM
CCOc1cc(F)c(Cn2nc(-c3ncc(OC)c(Nc4ccc(F)cc4C(N)=O)n3)c3ccccc32)c(F)c1 [Example 2-12-4, 2-({2-[1-(4-ethoxy-2,6-difluorobenzyl)-1H-indazol-3-yl]-5-methoxypyrimidin-4-yl}amino)-5-fluorobenzamide]		0.11 µM		2.4 µM
CCOc1cc(F)c(Cn2nc(-c3cc(Nc4ncncn4)ccn3)c3ccccc32)c(F)c1 [Example 2-5-2, N-{2-[1-(4-ethoxy-2,6-difluorobenzyl)-1H-indazol-3-yl]pyridin-4-yl}-1,3,5-triazin-2-amine]		0.021 µM		2.9 µM
CCOc1cc(F)c(Cn2nc(-c3ncc(OC)c(Nc4ccc(O)cc4)n3)c3ccccc32)c(F)c1 [Example 2-4-1, 4-({2-[1-(4-ethoxy-2,6-difluorobenzyl)-1H-indazol-3-yl]-5-methoxypyrimidin-4-yl}amino)phenol]		0.24 µM		6.9 µM
Fc1ccc(Cn2nc(-c3cc(Nc4ccncn4)ccn3)c3ccccc32)c(F)c1 [Example 2-11-1, N-{2-[1-(2,4-difluorobenzyl)-1H-indazol-3-yl]-pyridin-4-yl}pyrimidin-4-amine]	0.066 µM		> 10 µM	
CCOc1cc(F)c(Cn2nc(-c3ncc(OC)c(Nc4ccncn4)n3)c3ccccc32)c(F)c1 [Example 2-2-2, 2-[1-(4-ethoxy-2,6-difluorobenzyl)-1H-indazol-3-yl]-5-methoxy-N-(pyrimidin-4-yl)pyrimidin-4-amine]		0.022 µM		> 10 µM
COc1ccc(Cn2nc(-c3ncc(OC)c(Nc4ccnn4C)n3)c3ccccc32)cc1 [Example 2-1-4, 5-methoxy-2-[1-(4-methoxybenzyl)-1H-indazol-3-yl]-N-(1-methyl-1H-pyrazol-5-yl)pyrimidin-4-amine]		3.3 µM		
CCOc1cc(F)c(Cn2nc(-c3ncc(OC)c(Nc4ccc(F)cc4C(=O)O)n3)c3ccccc32)c(F)c1 [Example 2-2-5, 2-({2-[1-(4-ethoxy-2,6-difluorobenzyl)-1H-indazol-3-yl]-5-methoxypyrimidin-4-yl}amino)-5-fluorobenzoic acid]	0.18 µM			
CCOc1cc(F)c(Cn2nc(-c3cc(Nc4nnc[nH]4)ccn3)c3ccccc32)c(F)c1 [Example 2-8-2, 2-[1-(4-ethoxy-2,6-difluorobenzyl)-1H-indazol-3-yl]-N-(4H-1,2,4-triazol-3-yl)pyridin-4-amine]		0.8 µM		
